Data taken from patent US8101576B2, “Compounds and their effects on feeding behaviour” (priority 2006, dated 2012).
Square brackets hold non-standard residues; d marks the D form. Ends that are not written are not given here. * marks the point of attachment. Arachidoyl = CCCCCCCCCCCCCCCCCCCC(=O)*; Palmitoyl = CCCCCCCCCCCCCCCC(=O)*; Myristoyl = CCCCCCCCCCCCCC(=O)*

Key:
[1] = Inhibition of food intake, intraperitoneal injection to fasted mice; assay type: in vivo, C57BL/6 mice
Protocol: (§1) Animals: All animal procedures were approved by the British Home Office Animals (Scientific Procedures) Act 1986 (Project License number 70/5516).
(§2) Study protocol: C57BL/6 mice (20-35 g) were injected with the peptide under investigation following a 20-hour fast. Wistar rats were injected following a 24-hour fast. […] A pre-weighed quantity of chow was presented immediately after injection.

[2] = Inhibition of food intake, subcutaneous injection to fasted rats; assay type: in vivo, Wistar rats; settings: for Mean cumulative food intake in comparison to saline control / food intake in comparison to control group treated with native oxyntomodulin: over 24 hours
Protocol: as §1, §2

In the case of “D-His Ala Gln Gly Thr Phe Thr Ser Asp Tyr Ser Lys Tyr Leu Glu Gln Glu Ile Val Lys Tyr Phe Leu Gln Trp Leu Lys Asn Ala Gly Pro Ser Lys Asn Asn Ile Ala ([dH]AQGTFTSDYSKYLEQEIVKYFLQWLKNAGPSKNNIA) [PEPTIDE NO: 136]”, the “Mean cumulative food intake in comparison to saline control” value (from here on “Mean cumulative food intake”) ([1]; 5 nmoles/kg, over 24 hours) is reported as “potent and long acting suppression of food intake” and the “food intake in comparison to control group treated with native oxyntomodulin” value (shortened to “food intake … with native oxyntomodulin”) ([1]; 5 nmoles/kg, over 24 hours) is reported as “lower than in the control group treated with native oxyntomodulin”.
With “D-His Ala Gln Gly Thr Phe Thr Ser Asp Tyr Ser Lys Tyr Leu glu Glu Glu Leu Val Lys Tyr Phe Ile Gln Trp Leu Met Asn Thr Lys Arg Asn Lys Asn Asn Ile Ala ([dH]AQGTFTSDYSKYLEEELVKYFIQWLMNTKRNKNNIA; not fully specified (residue 15)) [PEPTIDE NO: 108]” the “Mean cumulative food intake” value ([1]; 100 nmoles/kg, over 24 hours) was “potent and long acting suppression of food intake” and the “food intake … with native oxyntomodulin” value ([1]; 100 nmoles/kg, over 24 hours) was “lower than in the control group treated with native oxyntomodulin”.
For “D-His Ser Gln Gly Thr Phe Thr Ser Asp Tyr Ser Lys Tyr Leu Asp Ser Arg Arg Ala Gln Asp Phe Val Gln Trp Leu Lys Asn Ala Gly Pro Ser Lys Asn Asn Ile Ala ([dH]SQGTFTSDYSKYLDSRRAQDFVQWLKNAGPSKNNIA) [PEPTIDE NO: 195]”, the “Mean cumulative food intake” value ([1]; 800 nmoles/kg, over 24 hours) was “potent and long acting suppression of food intake” and the “food intake … with native oxyntomodulin” value ([1]; 800 nmoles/kg, over 24 hours) was “lower than in the control group treated with native oxyntomodulin”.
For “D-His Ser Gln Gly Thr Phe Thr Ser Asp Tyr Ser Lys Tyr Leu Glu Gln Glu Ile Val Lys Tyr Phe Ile Gln Trp Leu Lys Asn Ala Gly Pro Ser Lys Asn Asn Ile Ala ([dH]SQGTFTSDYSKYLEQEIVKYFIQWLKNAGPSKNNIA) [PEPTIDE NO: 94]”, the “Mean cumulative food intake” value ([2]; 5 nmoles/kg) was “potent and long acting suppression of food intake” and the “food intake … with native oxyntomodulin” value ([2]; 5 nmoles/kg) was “lower than in the control group treated with native oxyntomodulin”.
For “D-His Ser Gln Gly Thr Phe Thr Ser Asp Tyr Ser Lys Tyr Leu Glu Gln Glu Leu Val Lys Tyr Phe Ile Gln Trp Leu Lys Asn Ala Gly Pro Ser Lys Asn Asn Ile Ala ([dH]SQGTFTSDYSKYLEQELVKYFIQWLKNAGPSKNNIA) [PEPTIDE NO: 82]”, the “Mean cumulative food intake” value ([2]; 10 nmoles/kg) was “potent and long acting suppression of food intake” and the “food intake … with native oxyntomodulin” value ([2]; 10 nmoles/kg) was “lower than in the control group treated with native oxyntomodulin”.
For “D-His Ser Gln Gly Thr Phe Thr Ser Asp Tyr Ser Lys Tyr Leu Glu Glu Glu Leu Val Lys Tyr Phe Ile Gln Trp Leu Lys Asn Ala Gly Pro Ser Lys Asn Asn Ile Ala ([dH]SQGTFTSDYSKYLEEELVKYFIQWLKNAGPSKNNIA) [PEPTIDE NO: 58]”, the “Mean cumulative food intake” value ([2]; 10 nmoles/kg) was “potent and long acting suppression of food intake” and the “food intake … with native oxyntomodulin” value ([2]; 10 nmoles/kg) was “lower than in the control group treated with native oxyntomodulin”.
With “D-His Ser Gln Gly Thr Phe Thr Ser Asp Tyr Ser Lys Tyr Leu Glu Glu Glu Leu Val Lys Tyr Phe Ile Gln Trp Leu Met Asn Thr Lys Arg Asn Lys Asn Asn Ile Ala ([dH]SQGTFTSDYSKYLEEELVKYFIQWLMNTKRNKNNIA) [PEPTIDE NO: 60]” the “Mean cumulative food intake” value ([2]; 100 nmoles/kg) was “potent and long acting suppression of food intake” and the “food intake … with native oxyntomodulin” value ([2]; 100 nmoles/kg) was “lower than in the control group treated with native oxyntomodulin”.
With “D-His Ser Gln Gly Thr Phe Thr Ser Asp Tyr Ser Lys Tyr Leu Glu Glu Glu Leu Val Lys Tyr Phe Leu Gln Trp Leu Lys Asn Ala Gly Pro Ser Lys Asn Asn Ile Ala ([dH]SQGTFTSDYSKYLEEELVKYFLQWLKNAGPSKNNIA) [PEPTIDE NO: 52]” the “Mean cumulative food intake” value ([2]; 10 nmoles/kg) was “potent and long acting suppression of food intake” and the “food intake … with native oxyntomodulin” value ([2]; 10 nmoles/kg) was “lower than in the control group treated with native oxyntomodulin”.
With “D-His Ser Gln Gly Thr Phe Thr Ser Asp Tyr Ser Lys Tyr Leu Glu Glu Glu Leu Val Lys Tyr Phe Leu Gln Trp Leu Lys Asn Ala Gly Pro Ser Lys Asn Asn Ile Ala Glu Ala Lys ([dH]SQGTFTSDYSKYLEEELVKYFLQWLKNAGPSKNNIAEAK) [PEPTIDE NO: 210]” the “Mean cumulative food intake” value ([1]; 20 nmoles/kg, over 48 hours) was “potent and long acting suppression of food intake” and the “food intake … with native oxyntomodulin” value ([1]; 20 nmoles/kg, over 48 hours) was “lower than in the control group treated with native oxyntomodulin”.
With “D-His Ser Gln Gly Thr Phe Thr Ser Asp Tyr Ser Lys Tyr Leu Glu Glu Glu Leu Val Lys Tyr Phe Leu Gln Trp Leu Lys Asn Ala Gly Pro Ser Lys Asn Asn Ile Ala Glu Ala Lys-arachidoyl ([dH]SQGTFTSDYSKYLEEELVKYFLQWLKNAGPSKNNIAEAK(Arachidoyl)) [PEPTIDE NO: 214]” the “Mean cumulative food intake” value ([1]; 400 nmoles/kg, over 48 hours) was “potent and long acting suppression of food intake” and the “food intake … with native oxyntomodulin” value ([1]; 400 nmoles/kg, over 48 hours) was “lower than in the control group treated with native oxyntomodulin”.
In the case of “D-His Ser Gln Gly Thr Phe Thr Ser Asp Tyr Ser Lys Tyr Leu Glu Glu Glu Leu Val Lys Tyr Phe Leu Gln Trp Leu Lys Asn Ala Gly Pro Ser Lys Asn Asn Ile Ala Glu Ala Lys-myristoyl ([dH]SQGTFTSDYSKYLEEELVKYFLQWLKNAGPSKNNIAEAK(Myristoyl)) [PEPTIDE NO: 211]”, the “Mean cumulative food intake” value ([1]; 200 nmoles/kg, over 48 hours) is reported as “potent and long acting suppression of food intake” and the “food intake … with native oxyntomodulin” value ([1]; 200 nmoles/kg, over 48 hours) is reported as “lower than in the control group treated with native oxyntomodulin”.
In the case of “D-His Ser Gln Gly Thr Phe Thr Ser Asp Tyr Ser Lys Tyr Leu Glu Glu Glu Leu Val Lys Tyr Phe Leu Gln Trp Leu Lys Asn Ala Gly Pro Ser Lys Asn Asn Ile Ala Glu Ala Lys-palmitoyl ([dH]SQGTFTSDYSKYLEEELVKYFLQWLKNAGPSKNNIAEAK(Palmitoyl)) [PEPTIDE NO: 213]”, the “Mean cumulative food intake” value ([1]; 400 nmoles/kg, over 48 hours) is reported as “potent and long acting suppression of food intake” and the “food intake … with native oxyntomodulin” value ([1]; 400 nmoles/kg, over 48 hours) is reported as “lower than in the control group treated with native oxyntomodulin”.
For “HSQGTFTSDYSKYLEEELVKYFLQWLKNAGPSKNNIA [PEPTIDE NO: 4]”, the “Mean cumulative food intake” value ([1]; 5 nmoles/kg, over 24 hours) was “potent and long acting suppression of food intake” and the “food intake … with native oxyntomodulin” value ([1]; 5 nmoles/kg, over 24 hours) was “lower than in the control group treated with native oxyntomodulin”.
With “His Ser Gln Gly Thr Phe Thr Ser Asp Tyr Ser Lys Tyr Leu Glu Glu Glu Ile Val Lys Tyr Phe ILe Gln Trp Leu Lys Asn Ala Gly Pro Ser Lys Asn Asn Ile Ala (HSQGTFTSDYSKYLEEEIVKYFIQWLKNAGPSKNNIA) [PEPTIDE NO: 22]” the “Mean cumulative food intake” value ([2]; 3 nmoles/kg) was “potent and long acting suppression of food intake” and the “food intake … with native oxyntomodulin” value ([2]; 3 nmoles/kg) was “lower than in the control group treated with native oxyntomodulin”.
In the case of “PEPTIDE NO: 216: analogue of oxyntomodulin with Asn34 replaced by Asp34; sequence shown only in FIG. 1 (HSQGTFTSDYSKYLEEELVKYFLEWLKNAGPSKDNIA)”, the “food intake suppression continues for” value ([2]; 10 nmoles/kg, 24 hours observed) is reported as at least 24 h, the “Mean cumulative food intake” value ([2]; 10 nmoles/kg) is reported as “potent and long acting suppression of food intake” and the “food intake … with native oxyntomodulin” value ([2]; 10 nmoles/kg) is reported as “lower than in the control group treated with native oxyntomodulin”.
With “[dH]ADGWFWSDYSKYLDSRRAQDFVQWLKNAGPSKNNIA [PEPTIDE NO: 199]” the “Mean cumulative food intake” value ([2]; 500 nmoles/kg) was “potent and long acting suppression of food intake” and the “food intake … with native oxyntomodulin” value ([2]; 500 nmoles/kg) was “lower than in the control group treated with native oxyntomodulin”.
